Consider 28 compounds from patent US20230058961A1, “SUBSTITUTED HETEROCYCLICS WITH THERAPEUTIC ACTIVITY IN HIV” (New York Blood Center, Inc., priority 2019, published 2023).

For orientation: IC50 means the concentration that inhibits the measured activity by half.

One data set in a line: in vitro. The following applies: human.
The test system of another data set is pseudovirus HIV-1 HXB2. The data set can be described thus: microbe, parasite or virus in culture. Type of data set: cell-based.
[1] abbreviates: CC50, cytotoxicity, TZM-bl cells, MTS, 3 days.
Where [2] appears, read: Human immunodeficiency virus 1, HXB2, TZM-bl, anti-HIV-1 activity, single-cycle assay, TZM-bl cells, pseudovirus HIV-1 HXB2, read-out: IC50.
[3] abbreviates: anti-HIV-1 activity, single-cycle assay, TZM-bl cells, pseudovirus HIV-1 HXB2, read-out: IC50.

Each structure is given as a SMILES string.

Description for in vitro: The anti-HIV-1 activity was assessed in a single-cycle assay by infecting TZM-bl indicator cells with the pseudovirus HIV-1 HXB2 according to established procedures (F. Curreli, Y. D. Kwon, D. S. Belov, R. R. Ramesh, A. V. Kurkin, A. Altieri, P. D. Kwong, A. K. Debnath, J Med Chem 2017, 60, 3124-3153; which is incorporated herein by reference for all that it teaches about the conduct and interpretation of the assay).
The cytotoxicity of the small polycyclic molecules in TZM-bl cells was determined by using the colorimetric method CellTiter 96® AQueous One Solution Cell Proliferation Assay (MTS) (Promega) following the manufacturer's instructions. Briefly, TZM-bl cells were platted in a 96-well tissue culture plate at 1×10^4/well and cultured at 37° C. Following overnight incubation, the cells were incubated with 100 μl of the compounds at graded concentrations and cultured for 3 days. The MTS reagent was added to the cells and incubated for 4 h at 37° C. The absorbance was recorded at 490 nm.

For the compound `NCC(NC(=O)c1ccc(-c2ccc(F)cn2)[nH]1)c1nc(CO)cs1` (stereo not shown) [Compound 17, N-(2-Amino-1-(4-(hydroxymethyl)thiazol-2-yl)ethyl)-5-(5-fluoropyridin-2-yl)-1H-pyrrole-2-carboxamide], the CC50 at 3 days in “in vitro” (CC50) is above 138 µM; in the data set “in vitro” (setting [1]) it was above 100 µM. Moreover, the values for the 50% inhibitory concentration (IC50) with pseudovirus HIV-1 HXB2 (setting [2]) and with pseudovirus HIV-1 HXB2 (setting [3]) were above 10 µM and above 11 µM, respectively.

Regarding `NCC(NC(=O)c1ccc(-c2ccc(Cl)cn2)[nH]1)c1nc(CO)cs1` (stereo not shown) [Compound 15, N-(2-Amino-1-(4-(hydroxymethyl)thiazol-2-yl)ethyl)-5-(5-chloropyridin-2-yl)-1H-pyrrole-2-carboxamide], the CC50 at 3 days is above 132 µM in the data set “in vitro” (CC50) and above 100 µM in the data set “in vitro” (setting [1]). The half-inhibitory concentration (IC50) in the data set on pseudovirus HIV-1 HXB2 (setting [3]) turned out to be 5 ± 0.5 µM.

As for `NCC(NC(=O)c1ccc(-c2ccc(C(F)(F)F)cn2)[nH]1)c1nc(CO)c(CO)s1` (stereo not shown) [Compound 35, N-(2-Amino-1-(4,5-bis(hydroxymethyl)thiazol-2-yl)ethyl)-5-(5-(trifluoromethyl)pyridin-2-yl)-1H-pyrrole-2-carboxamide], in “in vitro” (CC50), the CC50 at 3 days is above 113 µM. Also, the half-maximal inhibitory concentration (IC50) with pseudovirus HIV-1 HXB2 (setting [3]) is 1.8 µM.

Compound `NCC(NC(=O)c1ccc(-c2ccc(Cl)cn2)[nH]1)c1csc(CO)n1` (stereo not shown) [Compound 67, N-(2-Amino-1-(2-(hydroxymethyl)thiazol-4-yl)ethyl)-5-(5-chloropyridin-2-yl)-1H-pyrrole-2-carboxamide] displayed a CC50 at 3 days in the data set “in vitro” (CC50) above 106 µM.

Compound `NCC(NC(=O)c1ccc(-c2ccc(Cl)cn2)[nH]1)c1ncc(CO)s1` (stereo not shown) [Compound 2, N-(2-Amino-1-(5-(hydroxymethyl)thiazol-2-yl)ethyl)-5-(5-chloropyridin-2-yl)-1H-pyrrole-2-carboxamide] showed a CC50 at 3 days in “in vitro” (CC50) of 142 ± 1.7 µM. Further, in the data set with pseudovirus HIV-1 HXB2 (setting [3]), the IC50 came out at 2.7 ± 0.7 µM.

Compound `NCC(NC(=O)c1ccc(-c2ccc(C(F)(F)F)cn2)[nH]1)c1csc(C(=O)NCCO)n1` (stereo not shown) [Compound 69, 4-(2-Amino-1-(5-(5-(trifluoromethyl)pyridin-2-yl)-1H-pyrrole-2-carboxamido)ethyl)-N-(2-hydroxyethyl)thiazole-2-carboxamide] had a CC50 at 3 days in “in vitro” (CC50) above 107 µM. Besides, the concentration for half-maximal inhibition (IC50) with pseudovirus HIV-1 HXB2 (setting [2]) was above 21.3 µM.

Take `Cc1cc(-c2ccc(Cl)cn2)[nH]c1C(=O)NC(CN)c1ncc(CO)s1` (stereo not shown) [Compound 3, N-(2-Amino-1-(5-(hydroxymethyl)thiazol-2-yl)ethyl)-5-(5-chloropyridin-2-yl)-3-methyl-1H-pyrrole-2-carboxamide]: the CC50 at 3 days in the data set “in vitro” (CC50) came out at 98.3 ± 4 µM. Moreover, in the data set with pseudovirus HIV-1 HXB2 (setting [2]), the IC50 came out at 1.2 ± 0.1 µM.

For `COc1cc(-c2ccc(C(=O)NC(CN)c3nc(CO)cs3)[nH]2)ccn1` (stereo not shown) [Compound 47, N-(2-Amino-1-(4-(hydroxymethyl)thiazol-2-yl)ethyl)-5-(2-methoxypyridin-4-yl)-1H-pyrrole-2-carboxamide], the CC50 at 3 days in the data set “in vitro” (CC50) was above 133 µM. For the same compound, the 50% inhibitory concentration (IC50) in the data set on pseudovirus HIV-1 HXB2 (setting [2]) is above 10 µM; in the data set with pseudovirus HIV-1 HXB2 (setting [3]), above 11 µM.

The compound `CC(CN)(NC(=O)c1ccc(-c2ccc(C(F)(F)F)cn2)[nH]1)c1nc(CO)cs1` (racemic) [Compound 32, N-(1-Amino-2-(4-(hydroxymethyl)thiazol-2-yl)propan-2-yl)-5-(5-(trifluoromethyl)pyridin-2-yl)-1H-pyrrole-2-carboxamide] had a CC50 at 3 days in “in vitro” (CC50) above 70.5 µM. In addition, the IC50 in the data set with pseudovirus HIV-1 HXB2 (setting [2]) came to 5.1 ± 0.4 µM.

Compound `NCC(NC(=O)c1ccc(-c2ccc(C(F)(F)F)cn2)[nH]1)c1nccs1` (stereo not shown) [Compound 37, N-(2-Amino-1-(thiazol-2-yl)ethyl)-5-(5-(trifluoromethyl)pyridin-2-yl)-1H-pyrrole-2-carboxamide] registered a CC50 at 3 days in the data set “in vitro” (CC50) of 89.3 ± 1 µM. For the same compound, the concentration for half-maximal inhibition (IC50) in the data set with pseudovirus HIV-1 HXB2 (setting [2]) was 2 ± 0.2 µM.

Turning to `NCC(NC(=O)c1ccc(-c2ccc(C(F)(F)F)cn2)[nH]1)c1nc(CCO)cs1` (stereo not shown) [Compound 25, N-(2-Amino-1-(4-(2-hydroxyethyl)thiazol-2-yl)ethyl)-5-(5-(trifluoromethyl)pyridin-2-yl)-1H-pyrrole-2-carboxamide], the CC50 at 3 days in “in vitro” (CC50) amounted to 100 ± 7 µM. In the data set on pseudovirus HIV-1 HXB2 (setting [3]), the IC50 stood at 1.7 µM.

`NCC(NC(=O)c1ccc(-c2ccc(C(F)(F)F)cn2)[nH]1)c1ncc(C(O)CO)s1` (stereo not shown) [Compound 13, N-(2-Amino-1-(5-(1,2-dihydroxyethyl)thiazol-2-yl)ethyl)-5-(5-(trifluoromethyl)pyridin-2-yl)-1H-pyrrole-2-carboxamide]: the values for the CC50 at 3 days in “in vitro” (CC50) and in the data set “in vitro” (setting [1]) were above 113 µM and above 100 µM, respectively. Also, in the data set on pseudovirus HIV-1 HXB2 (setting [3]), the half-maximal inhibitory concentration (IC50) is 2.1 ± 0.3 µM.

`Cc1cc(-c2ccc(C(F)(F)F)cn2)[nH]c1C(=O)NC(CN)c1ncc(CO)s1` (stereo not shown) [Compound 7, N-(2-amino-1-(5-(hydroxymethyl)thiazol-2-yl)ethyl)-3-methyl-5-(5-(trifluoromethyl)pyridin-2-yl)-1H-pyrrole-2-carboxamide]: the CC50 at 3 days in “in vitro” (CC50) is 92.8 ± 2.4 µM. Also, in the data set on pseudovirus HIV-1 HXB2 (setting [2]), the IC50 was below 1 µM.

In “in vitro” (CC50), `NCC(NC(=O)c1ccc(-c2ccc(C(F)(F)F)cn2)[nH]1)c1cnc(CO)s1` (stereo not shown) [Compound 57, N-(2-Amino-1-(2-(hydroxymethyl)thiazol-5-yl)ethyl)-5-(5-(trifluoromethyl)pyridin-2-yl)-1H-pyrrole-2-carboxamide] gave a CC50 at 3 days above 122 µM. The IC50 in the data set on pseudovirus HIV-1 HXB2 (setting [2]) turned out to be 2.1 ± 0.4 µM.

Take `Cc1ccc(-c2ccc(C(=O)NC(CN)c3nc(CO)cs3)[nH]2)nc1` (stereo not shown) [Compound 19, N-(2-Amino-1-(4-(hydroxymethyl)thiazol-2-yl)ethyl)-5-(5-methylpyridin-2-yl)-1H-pyrrole-2-carboxamide]: the CC50 at 3 days in “in vitro” (CC50) was above 140 µM; in “in vitro” (setting [1]) it was above 100 µM. For the same compound, the IC50 in the data set on pseudovirus HIV-1 HXB2 (setting [3]) was 9.6 ± 1.2 µM.

Compound `NCC(NC(=O)c1ccc(-c2ccc(C(F)(F)F)nn2)[nH]1)c1nc(CO)cs1` (stereo not shown) [Compound 43, N-(2-Amino-1-(4-(hydroxymethyl)thiazol-2-yl)ethyl)-5-(6-(trifluoromethyl)pyridazin-3-yl)-1H-pyrrole-2-carboxamide] displayed a CC50 at 3 days in the data set “in vitro” (CC50) above 73 µM. Also, the IC50 in the data set on pseudovirus HIV-1 HXB2 (setting [2]) was above 10 µM; with pseudovirus HIV-1 HXB2 (setting [3]), above 12 µM.

Turning to `NCC(NC(=O)c1ccc(-c2ccc(C(F)(F)F)cn2)[nH]1)c1nc(CO)cs1` (stereo not shown) [Compound 21, N-(2-Amino-1-(4-(hydroxymethyl)thiazol-2-yl)ethyl)-5-(5-(trifluoromethyl)pyridin-2-yl)-1H-pyrrole-2-carboxamide], the CC50 at 3 days in the data set “in vitro” (CC50) was found to be 96 ± 6 µM. For the same compound, the half-inhibitory concentration (IC50) in the data set with pseudovirus HIV-1 HXB2 (setting [3]) worked out at 0.5 µM.

Turning to `Cc1cc(-c2ccc(C(F)(F)F)cn2)[nH]c1C(=O)NC(c1ncc(CO)s1)C(C)(C)N` (stereo not shown) [Compound 11, N-(2-Amino-1-(5-(hydroxymethyl)thiazol-2-yl)-2-methylpropyl)-3-methyl-5-(5-(trifluoro-methyl)pyridin-2-yl)-1H-pyrrole-2-carboxamide], the CC50 at 3 days is 35.3 ± 2 µM in “in vitro” (CC50) and below 50 µM in the data set “in vitro” (setting [1]). For the same compound, the half-inhibitory concentration (IC50) in the data set with pseudovirus HIV-1 HXB2 (setting [3]) turned out to be 0.6 ± 0.2 µM.

As to `NCC(NC(=O)c1ccc(-c2ncc(Cl)cn2)[nH]1)c1nc(CO)cs1` (stereo not shown) [Compound 45, N-(2-Amino-1-(4-(hydroxymethyl)thiazol-2-yl)ethyl)-5-(5-chloropyrimidin-2-yl)-1H-pyrrole-2-carboxamide], the CC50 at 3 days in “in vitro” (CC50) is above 66 µM. Besides, the IC50 in the data set on pseudovirus HIV-1 HXB2 (setting [2]) was above 10 µM; with pseudovirus HIV-1 HXB2 (setting [3]), above 15.8 µM.

The compound `Cc1cc(-c2ccc(C(F)(F)F)cn2)[nH]c1C(=O)NC(CN)c1csc(CO)n1` (stereo not shown) [Compound 63, N-(2-Amino-1-(2-(hydroxymethyl)thiazol-4-yl)ethyl)-3-methyl-5-(5-(trifluoromethyl)pyridin-2-yl)-1H-pyrrole-2-carboxamide] gave a CC50 at 3 days in “in vitro” (CC50) of 42.3 ± 0.2 µM. In addition, the IC50 in the data set on pseudovirus HIV-1 HXB2 (setting [2]) was 1.4 ± 0.1 µM.

In “in vitro” (CC50), `Cc1cc(-c2ccc(C(F)(F)F)cn2)[nH]c1C(=O)NC(CN)c1cnc(CO)s1` (stereo not shown) [Compound 61, N-(2-Amino-1-(2-(hydroxymethyl)thiazol-5-yl)ethyl)-3-methyl-5-(5-(trifluoromethyl)pyridin-2-yl)-1H-pyrrole-2-carboxamide] gave a CC50 at 3 days of 65 ± 4.9 µM. Also, the IC50 in the data set on pseudovirus HIV-1 HXB2 (setting [2]) stood at 2.3 ± 1 µM.

Consider `NCC(NC(=O)c1ccc(-c2ccc(Cl)cn2)[nH]1)c1cnc(CO)s1` (stereo not shown) [Compound 59, N-(2-Amino-1-(2-(hydroxymethyl)thiazol-5-yl)ethyl)-5-(5-chloropyridin-2-yl)-1H-pyrrole-2-carboxamide], for which the CC50 at 3 days in “in vitro” (CC50) was above 106 µM. The IC50 in the data set on pseudovirus HIV-1 HXB2 (setting [3]) was around 26 µM.

Turning to `NCC(NC(=O)c1ccc(-c2ccc(C(F)(F)F)c(F)c2)[nH]1)c1ncc(CO)s1` (stereo not shown) [Comparator A, reference compound], in the data set “in vitro” (CC50), the CC50 at 3 days came out at 21.9 µM. For the same compound, it took 0.089 µM to reach half-maximal inhibition in the data set with pseudovirus HIV-1 HXB2 (TZM-bl) (IC50).

Regarding `NCC(NC(=O)c1ccc(-c2ccc(C(F)(F)F)cc2)[nH]1)c1ncc(CO)s1` (stereo not shown) [Comparator B, reference compound], the CC50 at 3 days in the data set “in vitro” (CC50) was found to be 34 µM.

Regarding `NCC(NC(=O)c1ccc(-c2ccc(C(F)(F)F)cn2)[nH]1)c1nc(C(O)CO)cs1` (stereo not shown) [Compound 29, N-(2-Amino-1-(4-(1,2-dihydroxyethyl)thiazol-2-yl)ethyl)-5-(5-(trifluoromethyl)pyridin-2-yl)-1H-pyrrole-2-carboxamide], the results for the CC50 at 3 days in “in vitro” (CC50) and in the data set “in vitro” (setting [1]) were above 113 µM and above 100 µM, respectively. The IC50 in the data set on pseudovirus HIV-1 HXB2 (setting [2]) stood at 5.2 ± 0.9 µM.

In the case of `CC(C)(N)C(NC(=O)c1ccc(-c2ccc(C(F)(F)F)cn2)[nH]1)c1nc(CO)cs1` (stereo not shown) [Compound 23, N-(2-Amino-1-(4-(hydroxymethyl)thiazol-2-yl)-2-methylpropyl)-5-(5-(trifluoromethyl)pyridin-2-yl)-1H-pyrrole-2-carboxamide], the CC50 at 3 days in the data set “in vitro” (CC50) was 61 ± 6.5 µM; in “in vitro” (setting [1]) it was below 50 µM. In addition, the concentration for half-maximal inhibition (IC50) with pseudovirus HIV-1 HXB2 (setting [3]) stood at 1.73 µM.

Turning to `Cc1cc(-c2ccc(C(F)(F)F)cn2)[nH]c1C(=O)NC(C)(CN)c1nc(CO)cs1` (racemic) [Compound 31, N-(1-Amino-2-(4-(hydroxymethyl)thiazol-2-yl)propan-2-yl)-3-methyl-5-(5-(trifluoromethyl)-pyridin-2-yl)-1H-pyrrole-2-carboxamide], in the data set “in vitro” (CC50), the CC50 at 3 days is above 68.3 µM. The 50% inhibitory concentration (IC50) in the data set with pseudovirus HIV-1 HXB2 (setting [2]) came to 2.6 ± 0.4 µM.

On to `NCC(NC(=O)c1ccc(-c2ccc(Cl)nc2)[nH]1)c1nc(CO)cs1` (stereo not shown) [Compound 39, N-(2-Amino-1-(4-(hydroxymethyl)thiazol-2-yl)ethyl)-5-(6-chloropyridin-3-yl)-1H-pyrrole-2-carboxamide], for which the results for the CC50 at 3 days in “in vitro” (CC50) and in “in vitro” (setting [1]) were above 132 µM and above 100 µM, respectively. For the same compound, the concentration for half-maximal inhibition (IC50) with pseudovirus HIV-1 HXB2 (setting [2]) is above 10 µM; with pseudovirus HIV-1 HXB2 (setting [3]), above 11 µM.
